Our source for the IC50 values is patent publication US10633389B2, “CARM1 inhibitors and uses thereof” (Epizyme, Inc., priority 2013, dated 2020).

By IC50 is commonly meant the concentration needed to halve the response being measured.

This assay concerns asymmetric di-methyl PABP1 in RKO cells. The experiment in a line: RKO methylation assay, In Cell Western (ICW) for asymmetric di-methyl PABP1. Conditions: Homo sapiens, RKO, Cellular potencies, ICW PABP1me2a. It is filed as cell-based. An excerpt:
RKO adherent cells were purchased from ATCC (American Type Culture Collection), Manassas, Va., USA. DMEM/Glutamax medium, penicillin-streptomycin, heat inactivated fetal bovine serum, 0.05% trypsin and D-PBS were purchased from Life Technologies, Grand Island, N.Y., USA. Odyssey blocking buffer, 800 CW goat anti-rabbit IgG (H+L) antibody, and Licor Odyssey infrared scanner were purchased from Licor Biosciences, Lincoln, Nebr., USA. Asymmetric di-methyl PABP1 antibody was purchased from Cell Signaling Technology, Danvers, Mass., USA. Methanol was purchased from VWR, Franklin, Mass., USA. 10% Tween 20 was purchased from KPL, Inc., Gaithersburg, Md., USA. Paraformaldehyde (PFA) was purchased from EM Sciences. DRAQ5 was purchased from Biostatus Limited, Leicestershire, UK.
RKO adherent cells were maintained in growth medium (DMEM/Glutamax medium supplemented with 10% v/v heat inactivated fetal bovine serum and 100 units/mL penicillin-streptomycin) and cultured at 37° C. under 5% CO2.
Cell treatment, In Cell Western (ICW) for detection of asymmetric di-methyl PABP1 and DNA content: RKO cells were seeded in assay medium at a concentration of 30,000 cells per mL to a poly-D-lysine coated 384 well culture plate (BD Biosciences 356697) with 50 VL per well. Compound (100 nL) from a 96-well source plate was added directly to 384 well cell plate. Plates were incubated at 37° C., 5% CO2 for 48 hours. After two days of incubation, plates were brought to room temperature outside of the incubator for ten minutes and blotted on paper towels to remove cell media. Cells were fixed for 20 minutes at room temperature by adding 50 ul of 8% PFA followed by aspiration of supernatant with the Biotek EL406 plate washer. Cells were then permeabilized by addition of 50 μL of ice cold 100% methanol directly to each well and incubated for 30 min at room temperature. After 30 min, plates were transferred to a Biotek EL406 plate washer and washed 2 times with 100 μL per well of wash buffer (1×PBS). Next 60 μL per well of Odyssey blocking buffer (Odyssey Buffer with 0.1% Tween 20 (v/v)) were added to each plate and incubated 1 hour at room temperature. Blocking buffer was removed and 20 μL per well of primary antibody was added (asymmetric-methyl PABP1) diluted 1:400 in Odyssey buffer with 0.1% Tween 20 (v/v)) and plates were incubated overnight (16 hours) at 4° C. Plates were washed 5 times with 100 μL per well of wash buffer. Next 20 μL per well of secondary antibody was added (1:800 800 CW goat anti-rabbit IgG (H+L) antibody, 1:2000 DRAQ5 in Odyssey buffer with 0.1% Tween 20 (v/v)) and incubated for 1 hour at room temperature. The plates were washed 5 times with 100 μL per well wash buffer then 2 times with 100 μL per well of water. Plates were allowed to dry at room temperature then imaged on the Licor Odyssey machine which measures integrated intensity at 700 nm and 800 nm wavelengths. Both 700 and 800 channels were scanned.
First, the ratio for each well was determined by:
Each plate included fourteen control wells of DMSO only treatment (minimum inhibition) as well as fourteen control wells for maximum inhibition treated with 20 μM of a reference compound. The average of the ratio values for each control type was calculated and used to determine the percent […] for each test well in the plate. Reference compound was serially diluted three-fold in DMSO for a total of nine test concentrations, beginning at 20 μM.
Percent inhibition was determined and IC50 curves were generated using triplicate wells per concentration of compound. […]
On to `CNCC(O)COc1cc(Cl)cc(-c2nc(-c3cn[nH]c3)c(C)c(N(C)C3CCOCC3)n2)c1` (stereo not shown) [Example 617-1a], for which the IC50 fell in the range of 10 to 20 µM. Compound `CNCC(O)COc1cccc(-c2nc(-c3c(C)noc3C)c(F)c(N3CCN(C(=O)OC)CC3)n2)c1` (stereo not shown) [Example 97-1a] returned a 50% inhibitory concentration (IC50) below 5 µM. The result for `CNC[C@@H](O)COc1ccc(Cl)c(-c2nc(N[C@H]3C[C@@H](OC)C3)c(C)c(-c3c(C)noc3C)n2)c1` [Example 144-3] reads below 5 µM; that for `CCOC(=O)N1CCN(c2nc(-c3cccc(OCC(O)CNC)c3)nc(-c3c(C)noc3C)c2C)CC1` (stereo not shown) [Example 77-1a], below 5 µM. To `CNC[C@H](O)COc1ccc(Cl)c(-c2nc(-c3c(C)noc3C)c(C)c(N3Cc4cccnc4C3)n2)c1` [Example 92-3] belongs below 5 µM.

The compound `CNCC(O)COc1cc(OC)cc(-c2nc(-c3cnc4cnccn34)cc(N(C)C3CCOCC3)n2)c1` (stereo not shown) [Example 492-1a] showed an IC50 below 5 µM.

`CNCC(O)COc1cccc(-c2nc(C(=O)NC3CCN(C)CC3)cc(-c3c(C)noc3C)n2)c1` (stereo not shown) [Example 160-1a] registered an IC50 of 10 to 20 µM.

The compound `CCOC(=O)N1CCOC[C@@H]1CNc1nc(-c2cccc(OCC(O)CNC)c2)nc(-c2c(C)noc2C)c1C` (stereo partly shown) [Example 206-1a] showed an IC50 below 5 µM.

`CNCC(O)COc1cccc(-c2nc(-c3nc(C)cn3C)cc(N(C)C3CCOCC3)n2)c1` (stereo not shown) [Example 519-1a]: the IC50 lay in the range of 5 to 10 µM. To `CNCC(O)COc1cccc(-c2nc(-c3cnc4n3CCNC4)cc(N(C)C3CCOCC3)n2)c1` (stereo not shown) [Example 563-1a] belongs 10 to 20 µM.

With `CNCC(O)COc1cc(Cl)cc(-c2nc(-c3ccncc3)c(C3CC3)c(N(C)C3CCOCC3)n2)c1` (stereo not shown) [Example 574-1a], the IC50 was 10 to 20 µM. Compound `CNCC(O)COc1cccc(-c2nc(NC3CCOCC3)c(C)c(N3CCN(C(C)C)CC3)n2)c1` (stereo not shown) [Example 644-1a] gave an IC50 of at least 20 µM. The result for `CNC[C@@H](O)COc1ccc(Cl)c(-c2nc(-c3c(C)noc3C)c(C)c(N3CC4(CCN(C5CC5)CC4)C3)n2)c1` [Example 108-3] reads below 5 µM; that for `CCOC(=O)N1CCC2(C1)CN(c1nc(-c3cc(OC[C@H](O)CNC)ccc3Cl)nc(-c3c(C)noc3C)c1C)C2` [Example 287-3], below 5 µM. `CNC[C@@H](O)COc1ccc(Cl)c(-c2nc(N[C@@H]3CCN(C4CC4)[C@H](C)C3)c(C)c(-c3c(C)noc3C)n2)c1` [Example 139-3] gave an IC50 below 5 µM. In turn, `CNCC(O)COc1cccc(-c2nc(-c3c(C)noc3C)c(C)c(N3CCC[C@@H](NC)C3)n2)c1` (stereo partly shown) [Example 177-1a] yielded an IC50 of 5 to 10 µM. The result for `CNC[C@@H](O)COc1cccc(-c2nc(-c3cn(S(C)(=O)=O)c4ncncc34)c(C)c(N(C)C3CCOCC3)n2)c1` [Example 488-1a] reads below 5 µM; that for `CNC[C@H](O)COc1cccc(-c2nc(NC3CCOCC3)c(C)c(-c3c(C)noc3C)n2)c1` [Example 55-1a], below 5 µM; that for `CNCC(O)COc1cc(Cl)cc(-c2nc(NC3CCOCC3)cc(-c3c(C)noc3C)n2)c1` (stereo not shown) [Example 7-1a], 10 to 20 µM. With `CNC[C@@H](O)COc1ccc(Cl)c(-c2nc(N[C@H]3CO[C@@H](C)C3)c(Cl)c(-c3c(C)noc3C)n2)c1` [Example 148-3], the IC50 was below 5 µM. To `CNCC(O)COc1cccc(-c2nc(NCCCN3CCCCCC3=O)cc(-c3c(C)noc3C)n2)c1` (stereo not shown) [Example 99-1a] belongs below 5 µM; to `CNC[C@@H](O)COc1ccc(Cl)c(-c2nc(NC3CC(C)C3)c(C)c(-c3c(C)noc3C)n2)c1` (stereo partly shown) [Example 230-3], below 5 µM. To `CNCC(O)COc1cccc(-c2nc(Nc3cn(C)cn3)c(C)c(-c3c(C)noc3C)n2)c1` (stereo not shown) [Example 210-1a] belongs below 5 µM; to `CCS(=O)(=O)N1CCOC[C@@H]1CNc1nc(-c2cccc(OCC(O)CNC)c2)nc(-c2c(C)nsc2C)c1C` (stereo partly shown) [Example 71-3], 10 to 20 µM. With `CNCC(O)COc1cccc(-c2nc(NC3CN(CC(F)F)C3)c(C)c(-c3c(C)noc3C)n2)c1` (stereo not shown) [Example 237-1a], the IC50 is 10 to 20 µM. To `CNCC(O)COc1cccc(-c2nc(NC3CCOC3)c(C)c(N3CCN(C(=O)OC)C(C)(C)C3)n2)c1` (stereo not shown) [Example 447-1a] belongs 10 to 20 µM. The result for `CCS(=O)(=O)N1CC(Nc2nc(-c3cccc(OCC(O)CNC)c3)nc(-c3c(C)noc3C)c2C)C1` (stereo not shown) [Example 273-1a] reads 10 to 20 µM. The result for `CNC[C@@H](O)COc1ccc(Cl)c(-c2nc(NC3CC(F)C3)c(C)c(-c3c(C)noc3C)n2)c1` (stereo partly shown) [Example 188-3] reads below 5 µM; that for `CNC[C@@H](O)COc1ccc(Cl)c(-c2nc(-c3c(C)noc3C)c(C)c(N3Cc4cn(C(C)C)nc4C3)n2)c1` [Example 272-3], below 5 µM; that for `CNC[C@H](O)COc1cccc(-c2nc(-c3cnc4cnccn34)cc(N(C)C3CCOCC3)n2)c1` [Example 486-1a], below 5 µM. As to `CNCC(O)COc1cccc(-c2nc(N[C@@H]3C[C@H]4CC[C@@H](C3)N4C(=O)OC)c(C)c(-c3c(C)noc3C)n2)c1` (stereo partly shown) [Example 265-1a], the IC50 was below 5 µM. On to `CNCC(O)COc1cccc(-c2nc(N3CCN(C)[C@@H](C)C3)cc(N(C)C3CCOCC3)n2)c1` (stereo partly shown) [Example 502-1a], for which the IC50 was below 5 µM. The result for `CNCC(O)COc1cccc(-c2nc(-c3ccnc(C(=O)NC)c3)cc(N(C)C3CCOCC3)n2)c1` (stereo not shown) [Example 510-1a] reads 5 to 10 µM; that for `CNC[C@H](O)COc1ccc(Cl)c(-c2nc(-c3c(C)noc3C)c(C)c(N3Cc4ccncc4C3)n2)c1` [Example 90-3], below 5 µM; that for `CC[C@H]1CN(c2nc(-c3cccc(OCC(O)CNC)c3)nc(-c3c(C)noc3C)c2C)CCN1C1CC1` (stereo partly shown) [Example 178-1a], 10 to 20 µM.

Compound `CNCC(O)COc1cccc(-c2nc(N[C@H]3COC(=O)C3)c(C)c(-c3c(C)noc3C)n2)c1` (stereo partly shown) [Example 267-1a] registered an IC50 of 10 to 20 µM. In turn, `CNC[C@H](O)COc1ccc(F)c(-c2nc(NCCC(C)(C)OC)c(C)c(-c3c(C)noc3C)n2)c1` [Example 83-3] showed an IC50 below 5 µM.

The compound `CNC[C@@H](O)COc1ccc(Cl)c(-c2nc(-c3c(C)noc3C)c(C)c(C3CCOCC3)n2)c1` [Example 268-3] gave an IC50 below 5 µM. In turn, `CNC[C@@H](O)COc1cccc(-c2nc(-c3cnc4cnccn34)cc(N(C)C3CCOCC3)n2)c1` [Example 507-1a] gave an IC50 below 5 µM. The result for `CNCC(O)COc1cccc(-c2nc(-c3ccncc3)cc(N(C)C3CCNCC3)n2)c1` (stereo not shown) [Example 669-1a] reads at least 20 µM; that for `CNC[C@@H](O)COc1ccc(Cl)c(-c2nc(-c3c(C)noc3C)c(F)c(N3CC4(CCOCC4)C3)n2)c1` [Example 261-3], below 5 µM.

For the compound `CNCC(O)COc1cccc(-c2nc(N[C@@H]3CCOC3)c(C)c(N3CCC[C@H]4CN(Cc5ccccc5)C[C@H]43)n2)c1` (stereo partly shown) [Example 378-1a], the IC50 was in the range of 10 to 20 µM. The result for `CNCC(O)COc1cccc(-c2nc(-c3c(C)noc3C)cc(N3CCN(CCOC)CC3)n2)c1` (stereo not shown) [Example 139-1a] reads below 5 µM; that for `CNCC(O)COc1cccc(-c2nc(NC3CCOCC3)c(F)c(-c3c(C)noc3C)n2)c1` (stereo not shown) [Example 96-1a], below 5 µM. The compound `CNCC(O)COc1cccc(-c2nc(NC3CCN(CC(F)F)CC3)c(C)c(-c3c(C)noc3C)n2)c1` (stereo not shown) [Example 188-1a] returned an IC50 below 5 µM. To `CNCC(O)COc1cccc(-c2nc(-c3c(C)noc3C)c(C)c(N3CCN(C(=O)OC)C(C(F)F)C3)n2)c1` (stereo not shown) [Example 17-3] belongs below 5 µM.

Compound `CNC[C@@H](O)COc1ccc(Cl)c(-c2nc(-c3c(C)noc3C)c(C)c(N3CC4(CCN(C(=O)OC(C)C)C4)C3)n2)c1` [Example 286-3] returned an IC50 below 5 µM. To `CNC[C@@H](O)COc1ccc(Cl)c(-c2nc(-c3c(C)noc3C)c(C)c(N3Cc4cnc(C(F)(F)F)nc4C3)n2)c1` [Example 263-3] belongs below 5 µM; to `CNCC(O)COc1cccc(-c2nc(NCC3CCN(C4CC4)CC3)c(C)c(-c3c(C)noc3C)n2)c1` (stereo not shown) [Example 283-1a], below 5 µM.
